Test results reported in PubChem BioAssay (NCI).
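Five compound concentrations were applied to cells in 96-well plates for 48 hours; endpoints were derived by simple linear interpolation of the resulting dose-response curve. GI50 marks 50% less growth. TGI denotes the concentration required for complete inhibition of growth.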

Key:
Experiment in all cases: NCI anticancer screen, dose series, 48 h
786-0 renal = test system: 786-0 renal
A498 renal = test system: A498 renal
A549 NSCLC = test system: A549 NSCLC
ACHN renal = test system: ACHN renal
BT-549 breast = test system: BT-549 breast
CAKI-1 renal = test system: CAKI-1 renal
CCRF-CEM leukemia = test system: CCRF-CEM leukemia
COLO 205 colon = test system: COLO 205 colon
DU-145 prostate = test system: DU-145 prostate
EKVX NSCLC = test system: EKVX NSCLC
HCC-2998 colon = test system: HCC-2998 colon
HCT-116 colon = test system: HCT-116 colon
HCT-15 colon = test system: HCT-15 colon
HL-60(TB) leukemia = test system: HL-60(TB) leukemia
HOP-62 NSCLC = test system: HOP-62 NSCLC
HOP-92 NSCLC = test system: HOP-92 NSCLC
HS 578T breast = test system: HS 578T breast
HT29 colon = test system: HT29 colon
IGROV1 ovarian = test system: IGROV1 ovarian
K-562 leukemia = test system: K-562 leukemia
KM12 colon = test system: KM12 colon
LOX IMVI melanoma = test system: LOX IMVI melanoma
M14 melanoma = test system: M14 melanoma
MALME-3M melanoma = test system: MALME-3M melanoma
MCF7 breast = test system: MCF7 breast
MDA-MB-231 breast = test system: MDA-MB-231 breast
MDA-MB-435 = test system: MDA-MB-435
MOLT-4 leukemia = test system: MOLT-4 leukemia
NCI-H226 lung = test system: NCI-H226 lung
NCI-H23 lung = test system: NCI-H23 lung
NCI-H460 lung = test system: NCI-H460 lung
NCI-H522 lung = test system: NCI-H522 lung
NCI/ADR-RES ovarian = test system: NCI/ADR-RES ovarian
OVCAR-3 ovarian = test system: OVCAR-3 ovarian
OVCAR-4 ovarian = test system: OVCAR-4 ovarian
OVCAR-5 ovarian = test system: OVCAR-5 ovarian
OVCAR-8 ovarian = test system: OVCAR-8 ovarian
PC-3 prostate = test system: PC-3 prostate
RXF 393 renal = test system: RXF 393 renal
SF-268 CNS = test system: SF-268 CNS
SF-295 CNS = test system: SF-295 CNS
SF-539 CNS = test system: SF-539 CNS
SK-MEL-2 melanoma = test system: SK-MEL-2 melanoma
SK-MEL-28 melanoma = test system: SK-MEL-28 melanoma
SK-MEL-5 melanoma = test system: SK-MEL-5 melanoma
SK-OV-3 ovarian = test system: SK-OV-3 ovarian
SN12C renal = test system: SN12C renal
SNB-19 CNS = test system: SNB-19 CNS
SNB-75 CNS = test system: SNB-75 CNS
SR leukemia = test system: SR leukemia
SW-620 colon = test system: SW-620 colon
T-47D breast = test system: T-47D breast
TK-10 renal = test system: TK-10 renal
U251 CNS = test system: U251 CNS
UACC-257 melanoma = test system: UACC-257 melanoma
UACC-62 melanoma = test system: UACC-62 melanoma
UO-31 renal = test system: UO-31 renal

Compound: CCCCCc1ccc(S(=O)(=O)Nc2cc(-c3csc(NC(C)=O)n3)ccc2N2CCN(C)CC2)cc1
- GI50 (786-0 renal): 4.9 µM
- TGI (786-0 renal): 11.1 µM
- GI50 (A498 renal): 6.23 µM
- TGI (A498 renal): 11.3 µM
- GI50 (A549 NSCLC): 5.11 µM
- TGI (A549 NSCLC): 11.8 µM
- GI50 (ACHN renal): 4.87 µM
- TGI (ACHN renal): 9.24 µM
- GI50 (BT-549 breast): 4.98 µM
- TGI (BT-549 breast): 10.1 µM
- GI50 (CAKI-1 renal): 4.84 µM
- TGI (CAKI-1 renal): 9.48 µM
- GI50 (CCRF-CEM leukemia): 4.82 µM
- TGI (CCRF-CEM leukemia): 20.3 µM
- GI50 (COLO 205 colon): 5.16 µM
- TGI (COLO 205 colon): 11.8 µM
- GI50 (DU-145 prostate): 5.16 µM
- TGI (DU-145 prostate): 9.8 µM
- GI50 (EKVX NSCLC): 5.65 µM
- TGI (EKVX NSCLC): 10.7 µM
- GI50 (HCC-2998 colon): 1620 nM
- TGI (HCC-2998 colon): 5.47 µM
- GI50 (HCT-116 colon): 1110 nM
- TGI (HCT-116 colon): 4.43 µM
- GI50 (HCT-15 colon): 1080 nM
- TGI (HCT-15 colon): 4.49 µM
- GI50 (HL-60(TB) leukemia): 1370 nM
- TGI (HL-60(TB) leukemia): 6.09 µM
- GI50 (HOP-62 NSCLC): 5.51 µM
- TGI (HOP-62 NSCLC): 12.2 µM
- GI50 (HOP-92 NSCLC): 3.68 µM
- TGI (HOP-92 NSCLC): 8.84 µM
- GI50 (HS 578T breast): 5.12 µM
- TGI (HS 578T breast): 13.4 µM
- GI50 (HT29 colon): 1990 nM
- TGI (HT29 colon): 8.29 µM
- GI50 (IGROV1 ovarian): 4.67 µM
- TGI (IGROV1 ovarian): 9.46 µM
- GI50 (K-562 leukemia): 1030 nM
- TGI (K-562 leukemia): 3.4 µM
- GI50 (KM12 colon): 5.65 µM
- TGI (KM12 colon): 11 µM
- GI50 (LOX IMVI melanoma): 648 nM
- TGI (LOX IMVI melanoma): 1350 nM
- GI50 (M14 melanoma): 2000 nM
- TGI (M14 melanoma): 7.73 µM
- GI50 (MALME-3M melanoma): 4.05 µM
- TGI (MALME-3M melanoma): 9.11 µM
- GI50 (MCF7 breast): 1600 nM
- TGI (MCF7 breast): 6.45 µM
- GI50 (MDA-MB-231 breast): 4.75 µM
- TGI (MDA-MB-231 breast): 9.91 µM
- GI50 (MDA-MB-435): 4.85 µM
- TGI (MDA-MB-435): 9.5 µM
- GI50 (MOLT-4 leukemia): 2430 nM
- TGI (MOLT-4 leukemia): 8.33 µM
- GI50 (NCI-H226 lung): 4.94 µM
- TGI (NCI-H226 lung): 10.7 µM
- GI50 (NCI-H23 lung): 4.78 µM
- TGI (NCI-H23 lung): 9.53 µM
- GI50 (NCI-H460 lung): 4.77 µM
- TGI (NCI-H460 lung): 9.9 µM
- GI50 (NCI-H522 lung): 6.35 µM
- TGI (NCI-H522 lung): 13 µM
- GI50 (NCI/ADR-RES ovarian): 4.54 µM
- TGI (NCI/ADR-RES ovarian): 9.18 µM
- GI50 (OVCAR-3 ovarian): 4.92 µM
- TGI (OVCAR-3 ovarian): 9.64 µM
- GI50 (OVCAR-4 ovarian): 5.44 µM
- TGI (OVCAR-4 ovarian): 10.3 µM
- GI50 (OVCAR-5 ovarian): 5 µM
- TGI (OVCAR-5 ovarian): 9.55 µM
- GI50 (OVCAR-8 ovarian): 5.82 µM
- TGI (OVCAR-8 ovarian): 13.1 µM
- GI50 (PC-3 prostate): 2230 nM
- TGI (PC-3 prostate): 7.72 µM
- GI50 (RXF 393 renal): 3.66 µM
- TGI (RXF 393 renal): 8 µM
- GI50 (SF-268 CNS): 5.52 µM
- TGI (SF-268 CNS): 11.6 µM
- GI50 (SF-295 CNS): 4.9 µM
- TGI (SF-295 CNS): 9.59 µM
- GI50 (SF-539 CNS): 4.98 µM
- TGI (SF-539 CNS): 9.63 µM
- GI50 (SK-MEL-2 melanoma): 5.76 µM
- TGI (SK-MEL-2 melanoma): 12.6 µM
- GI50 (SK-MEL-28 melanoma): 3.46 µM
- TGI (SK-MEL-28 melanoma): 7.49 µM
- GI50 (SK-MEL-5 melanoma): 5.28 µM
- TGI (SK-MEL-5 melanoma): 9.79 µM
- GI50 (SK-OV-3 ovarian): 5.95 µM
- TGI (SK-OV-3 ovarian): 11.5 µM
- GI50 (SN12C renal): 4.7 µM
- TGI (SN12C renal): 9.25 µM
- GI50 (SNB-19 CNS): 5.49 µM
- TGI (SNB-19 CNS): 10.4 µM
- GI50 (SNB-75 CNS): 3.67 µM
- TGI (SNB-75 CNS): 7.98 µM
- GI50 (SR leukemia): 929 nM
- TGI (SR leukemia): 2770 nM
- GI50 (SW-620 colon): 1310 nM
- TGI (SW-620 colon): 4.72 µM
- GI50 (T-47D breast): 4.8 µM
- TGI (T-47D breast): 11.7 µM
- GI50 (TK-10 renal): 6.09 µM
- TGI (TK-10 renal): 11.7 µM
- GI50 (U251 CNS): 3.78 µM
- TGI (U251 CNS): 8.93 µM
- GI50 (UACC-257 melanoma): 4.48 µM
- TGI (UACC-257 melanoma): 11.4 µM
- GI50 (UACC-62 melanoma): 3.83 µM
- TGI (UACC-62 melanoma): 8.04 µM
- GI50 (UO-31 renal): 3.53 µM
- TGI (UO-31 renal): 7.57 µM
